This is an account of results in patent publication US4404378A, “2-Substituted or unsubstituted aminocarbonyloxyalkyl-1,4-dihydropyridines” (Banyu Pharmaceutical Co., Ltd., priority 1981, dated 1983).

Series [1] can be described thus: Acute toxicity, i.v., up-and-down method. As to conditions: mouse, in vivo, iv.
Series [2] concerns isolated hearts of rabbits. Put plainly: Coronary vasodilation in isolated rabbit hearts (Langendorff method). As to conditions: Oryctolagus cuniculus, isolated rabbit heart, dosage required to increase coronary outflow by 50%, read-out: Coronary vasodilation ICD50. Here is the method: (a) Coronary vasodilation According to Langendorff method (O. Langendorff; Pflugers arch. ges. phisiol., 61, 291-332 (1895)), the coronary vasodilation effects were tested using isolated hearts of rabbits.

The next series relates to Beagle dogs. The series can be described thus: Coronary effects on dogs. Format: in vivo, dog. Here is the method: (c) Coronary effects on dogs Beagle dogs (13 to 16 kg. .male.) were subjected to thoracotomy under anesthesia with sodium pentobarbital, and a probe was attached to the heart left coronary anterior descending artery of each animal, whereupon the coronary blood flow (CF) was measured by an electromagnetic flowmeter. On the other hand, a probe was attached to the exposed right femoral artery, and the femoral artery blood flow (FAF) was measured by an electromagnetic flowmeter. A canule was inserted to the left femoral artery, and the systemic blood pressure (BP) was bloody measured by a transducer. The heart rate (HR) was measured by an electrocardiogram. The sample solution was intravenously injected to the right femoral vein. The coronary blood flow (CF), the femoral artery blood flow (FAF) and the heart rate (HR) were represented by a % increase upon the injection of each sample as compared with the respective control value upon the injection of a saline. […]

≈ marks a conversion by molar mass, not a printed value. Where two headings read alike, the source gives them in different places.

`CCOC(=O)C1=C(COC(=O)Nc2ccc(Cl)cc2)NC(C)=C(C(=O)OC(C)C)C1c1cccc([N+](=O)[O-])c1` (stereo not drawn) [(21), 2-(4-chlorophenyl)aminocarbonyloxymethyl-6-methyl-4-(3-nitrophenyl)-3-ethoxycarbonyl-5-isopropoxycarbonyl-1,4-dihydropyridine] registered an LD50 in series [1] of 83 mg/kg. Besides, the EC50 in series [2] (Table 1(b)) was 0.28 µg/mL (≈ 0.502 µM).

Take `COC(=O)C1=C(COC(N)=O)NC(C)=C(C(=O)OCCN(C)Cc2ccccc2)C1c1cccc([N+](=O)[O-])c1` (stereo not drawn) [(15), 2-Aminocarbonyloxymethyl-6-methyl-4-(3-nitrophenyl)-3-methoxycarbonyl-5-(β-N--methylbenzylaminoethoxy)carbonyl-1,4-dihydropyridine]: the LD50 in series [1] is over 200 mg/kg. For the same compound, in series [2] (Table 1(b)), the EC50 turned out to be 0.4 µg/mL (≈ 0.743 µM).

Consider `CCOC(=O)C1=C(C)NC(COC(=O)NC2CCCCC2)=C(C(=O)OCCOC)C1c1cccc([N+](=O)[O-])c1` (stereo not drawn) [(14), 2-N--Cyclohexylaminocarbonyloxymethyl-6-methyl-5-ethoxycarbonyl-3-(β-methoxyethoxy)carbonyl-1,4-dihydropyridine], for which the LD50 in series [1] is 88 mg/kg. Further, in series [2] (Table 1(b)), the EC50 was determined as 0.35 µg/mL (≈ 0.642 µM).

`COCCOC(=O)C1=C(C)NC(COC(N)=O)=C(C(=O)OCCOC)C1c1ccccc1Cl` (stereo not drawn) [(20), 2-Aminocarbonyloxymethyl-6-methyl-4-(2-chlorophenyl)-3,5-bis[(β-methoxyethoxy)carbonyl]-1,4-dihydropyridine] displayed an LD50 in series [1] of 184 mg/kg. For the same compound, the EC50 in series [2] (Table 1(b)) was 0.36 µg/mL (≈ 0.745 µM).

In series [1], `CCOC(=O)C1=C(COC(N)=O)NC(C)=C(C(=O)OC(C)C)C1c1cccc([N+](=O)[O-])c1` (stereo not drawn) [(7), 2-Aminocarbonyloxymethyl-6-methyl-4-(3-nitrophenyl)-3-ethoxycarbonyl-5-isopropoxycarbonyl-1,4-dihydropyridine] gave a median lethal dose (LD50) of 76 mg/kg. Further, the EC50 in series [2] (Table 1(a)) turned out to be 0.24 µg/mL (≈ 0.536 µM).

`CCCOCCOC(=O)C1=C(C)NC(COC(N)=O)=C(C(=O)OCCOCCC)C1c1cccc([N+](=O)[O-])c1` (stereo not drawn) [(12), 2-Aminocarbonyloxymethyl-6-methyl-4-(3-nitrophenyl)-3,5-bis[(β-propoxyethoxy)carbonyl]-1,4-dihydropyridine]: in series [1], the LD50 is 123 mg/kg. The EC50 in series [2] (Table 1(b)) is 0.15 µg/mL (≈ 0.273 µM).

In series [1], `CCCOCCOC(=O)C1=C(C)NC(COC(N)=O)=C(C(=O)OCC)C1c1ccccc1[N+](=O)[O-]` (stereo not drawn) [(10), 2-Aminocarbonyloxymethyl-6-methyl-4-(2-nitrophenyl)-3-ethoxycarbonyl-5-(β-propoxyethoxy)carbonyl-1,4-dihydropyridine] yielded an LD50 of 84 mg/kg. Further, in series [2] (Table 1(b)), the EC50 was found to be 0.3 µg/mL (≈ 0.61 µM).

`CCCOCCOC(=O)C1=C(C)NC(COC(=O)NC)=C(C(=O)OCCOCCC)C1c1cccc([N+](=O)[O-])c1` (stereo not drawn) [(13), 2-N--Methylaminocarbonyloxymethyl-6-methyl-4-(3-nitrophenyl)-3,5-bis[(β-propoxyethoxy)carbonyl]-1,4-dihydropyridine] had an LD50 in series [1] of 104 mg/kg. In addition, the EC50 in series [2] (Table 1(b)) came to 0.04 µg/mL (≈ 0.071 µM).

In turn, `CCOC(=O)C1=C(C)NC(COC(=O)NC)=C(C(=O)OCC)C1c1ccccc1[N+](=O)[O-]` (stereo not drawn) [(6), 2-N--Methylaminocarbonyloxymethyl-6-methyl-4-(2-nitrophenyl)-3,5-diethoxycarbonyl-1,4-dihydropyridine] gave an LD50 in series [1] of 30 mg/kg. Also, the EC50 in series [2] (Table 1(a)) turned out to be 0.45 µg/mL (≈ 1.01 µM).

For the compound `COC(=O)C1=C(C)NC(C)=C(C(=O)OC)C1c1ccccc1[N+](=O)[O-]` [nifedipine, 2,6-Dimethyl-4-(2-nitrophenyl)-3,5-dimethoxycarbonyl-1,4-dihydropyridine], the EC50 in series [2] (Table 1(a)) was 0.29 µg/mL (≈ 0.837 µM). In addition, the EC50 in series [2] (Table 1(b)) was determined as 0.22 µg/mL (≈ 0.635 µM). For the same compound, in the series with Beagle dogs (1 μg/kg i.v.), the “BP (systemic blood pressure) % decrease” value is 2%, the “CF (coronary blood flow) % increase” value is listed as 10%, the “FAF (femoral artery blood flow) % increase” value is -3% and the “HR (heart rate) % increase” value is recorded as 0.6%. In addition, in the series on Beagle dogs (3 μg/kg i.v.), the “BP (systemic blood pressure) % decrease” value is given as 10%, the “CF (coronary blood flow) % increase” value is 48%, the “FAF (femoral artery blood flow) % increase” value is reported as -4% and the “HR (heart rate) % increase” value amounted to 2%. In the series with Beagle dogs (10 μg/kg i.v.), the “BP (systemic blood pressure) % decrease” value was determined as 18%, the “CF (coronary blood flow) % increase” value amounted to 86%, the “FAF (femoral artery blood flow) % increase” value stood at 10% and the “HR (heart rate) % increase” value was determined as 4%.

In series [1], `COC(=O)C1=C(COC(N)=O)NC(C)=C(C(=O)OCCN2CCN(C)CC2)C1c1cccc([N+](=O)[O-])c1` (stereo not drawn) [(17), 2-Aminocarbonyloxymethyl-6-methyl-4-(3-nitrophenyl)-3-methoxycarbonyl-5-[β-(4-methyl-1-piperazinyl)ethoxycarbonyl]-1,4-dihydropyridine] displayed a 50% lethal dose (LD50) of 68 mg/kg. Besides, in series [2] (Table 1(b)), the EC50 was found to be 2 µg/mL (≈ 3.86 µM).

With `CCOC(=O)C1=C(COC(=O)NC)NC(C)=C(C(=O)OC(C)C)C1c1cccc([N+](=O)[O-])c1` (stereo not drawn) [(8), 2-N--Methylaminocarbonyloxymethyl-6-methyl-4-(3-nitrophenyl)-3-ethoxycarbonyl-5-isopropoxycarbonyl-1,4-dihydropyridine], in series [1], the LD50 was 37 mg/kg. Besides, the EC50 in series [2] (Table 1(a)) amounted to 0.23 µg/mL (≈ 0.498 µM).

In the case of `CCCOCCOC(=O)C1=C(C)NC(COC(N)=O)=C(C(=O)OCC)C1c1cccc([N+](=O)[O-])c1` (stereo not drawn) [(9), 2-Aminocarbonyloxymethyl-6-methyl-4-(3-nitrophenyl)-3-ethoxycarbonyl-5-(β-propoxyethoxy)carbonyl-1,4-dihydropyridine], the LD50 in series [1] amounted to 136 mg/kg. For the same compound, the EC50 in series [2] (Table 1(b)) amounted to 0.34 µg/mL (≈ 0.692 µM).

As to `COC(=O)C1=C(C)NC(COC(N)=O)=C(C(=O)OC)C1c1cccc([N+](=O)[O-])c1` (stereo not drawn) [(3), 2-Aminocarbonyloxymethyl-6-methyl-4-(3-nitrophenyl)-3,5-dimethoxycarbonyl-1,4-dihydropyridine], the LD50 in series [1] came out at 167 mg/kg. The EC50 in series [2] (Table 1(a)) came to 0.36 µg/mL (≈ 0.888 µM).

Regarding `CCOC(=O)C1=C(C)NC(COC(N)=O)=C(C(=O)OCC)C1c1cccc([N+](=O)[O-])c1` (stereo not drawn) [(1)], in series [1], the LD50 worked out at 207 mg/kg. For the same compound, the EC50 in series [2] (Table 1(a)) was 0.24 µg/mL (≈ 0.554 µM).

`COC(=O)C1=C(COC(N)=O)NC(C)=C(C(=O)OCCN2CCOCC2)C1c1cccc([N+](=O)[O-])c1` (stereo not drawn) [(18), 2-Aminocarbonyloxymethyl-6-methyl-4-(3-nitrophenyl)-3-methoxycarbonyl-5-(β-morpholinoethoxy)carbonyl-1,4-dihydropyridine] registered an LD50 in series [1] of over 200 mg/kg. For the same compound, in series [2] (Table 1(b)), the EC50 came to 1.5 µg/mL (≈ 2.97 µM).

In turn, `CCCOCCOC(=O)C1=C(COC(N)=O)NC(C)=C(C(=O)OCCN(C)Cc2ccccc2)C1c1cccc([N+](=O)[O-])c1` (stereo not drawn) [(19), 2-Aminocarbonyloxymethyl-6-methyl-4-(3-nitrophenyl)-3-(β-propoxyethoxy)carbonyl-5-(β-N--methylbenzylaminoethoxy)carbonyl-1,4-dihydropyridine] showed an LD50 in series [1] of 168 mg/kg. The EC50 in series [2] (Table 1(b)) turned out to be 0.18 µg/mL (≈ 0.295 µM).

In series [1], `CCCOCCOC(=O)C1=C(COC(N)=O)NC(C)=C(C(=O)OCC)C1c1cccc([N+](=O)[O-])c1` (stereo not drawn) [(11), 2-Aminocarbonyloxymethyl-6-methyl-4-(3-nitrophenyl)-5-ethoxycarbonyl-3-(β-propoxyethoxy)carbonyl-1,4-dihydropyridine] had an LD50 of 123 mg/kg. Moreover, the EC50 in series [2] (Table 1(b)) worked out at 0.25 µg/mL (≈ 0.509 µM).

Consider `CCOC(=O)C1=C(C)NC(COC(N)=O)=C(C(=O)OCC)C1c1ccccc1[N+](=O)[O-]` (stereo not drawn) [(5), 2-Aminocarbonyloxymethyl-6-methyl-4-(2-nitrophenyl)-3,5-diethoxycarbonyl-1,4-dihydropyridine], for which, in series [1], the LD50 came to 104 mg/kg. Also, the EC50 in series [2] (Table 1(a)) worked out at 0.48 µg/mL (≈ 1.11 µM).

With `CCOC(=O)C1=C(COC(=O)Nc2ccccc2)NC(C)=C(C(=O)OC(C)C)C1c1cccc([N+](=O)[O-])c1` (stereo not drawn) [(22), 2-N--Phenylaminocarbonyloxymethyl-6-methyl-4-(3-nitrophenyl)-3-ethoxycarbonyl-5-isopropoxycarbonyl-1,4-dihydropyridine], the LD50 in series [1] amounted to 80 mg/kg. Also, in series [2] (Table 1(b)), the EC50 is 0.33 µg/mL (≈ 0.63 µM).

With `CNC(=O)OCC1=C(C(=O)OC)C(c2cccc([N+](=O)[O-])c2)C(C(=O)OCCN(C)Cc2ccccc2)=C(C)N1` (stereo not drawn) [(16), 2-N--Methylaminocarbonyloxymethyl-6-methyl-4-(3-nitrophenyl)-3-methoxycarbonyl-5-(β-N--methylbenzylaminoethoxy)carbonyl-1,4-dihydropyridine], the LD50 in series [1] was found to be 146 mg/kg. The EC50 in series [2] (Table 1(b)) is 0.25 µg/mL (≈ 0.452 µM).

For orientation: LD50 means the dose at which mortality reaches 50%. Read a high LD50 as a less toxic substance.
